# Measured values from patent US8431564B2 (Merck Sharp & Dohme B.V., priority 2009, dated 2013).
# Target: T1, human FSH receptor (Homo sapiens, UniProt P23945)
# T1 construct: expressed in transfected cells; host or cells: CHO (Chinese Hamster Ovary) cells, stably transfected, cotransfected with CRE-luciferase reporter
# T1 sequence (P23945 18-695): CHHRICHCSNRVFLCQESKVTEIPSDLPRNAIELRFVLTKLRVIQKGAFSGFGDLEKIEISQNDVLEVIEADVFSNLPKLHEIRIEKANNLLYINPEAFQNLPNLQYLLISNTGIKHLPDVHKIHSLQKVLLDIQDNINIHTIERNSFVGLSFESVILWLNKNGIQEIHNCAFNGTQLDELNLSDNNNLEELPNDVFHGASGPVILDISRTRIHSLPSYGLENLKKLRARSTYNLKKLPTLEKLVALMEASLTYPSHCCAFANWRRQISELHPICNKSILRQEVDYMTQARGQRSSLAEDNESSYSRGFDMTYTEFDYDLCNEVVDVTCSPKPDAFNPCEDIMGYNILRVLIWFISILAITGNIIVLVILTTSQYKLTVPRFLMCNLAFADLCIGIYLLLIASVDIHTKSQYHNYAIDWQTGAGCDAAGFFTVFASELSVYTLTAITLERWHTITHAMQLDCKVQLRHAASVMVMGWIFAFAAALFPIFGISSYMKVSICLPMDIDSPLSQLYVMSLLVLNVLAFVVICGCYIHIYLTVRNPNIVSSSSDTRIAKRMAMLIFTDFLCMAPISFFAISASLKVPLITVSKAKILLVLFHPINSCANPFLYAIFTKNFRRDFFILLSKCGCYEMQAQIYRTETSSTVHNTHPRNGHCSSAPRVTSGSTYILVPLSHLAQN
# Test: Agonistic activity at the human FSH receptor expressed in CHO cells (CRE-luciferase reporter)
# Type: cell-based
# Details: CHO cells stably transfected with human FSH receptor and CRE/luciferase reporter; 4 hours incubation; pEC50 is -log EC50; read-out: hFSHRago (CHO luc) pEC50 (converted)
# Outline: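 Stably transfected CHO cells with CRE-driven firefly luciferase reporter, incubated 4 h at 37° C. with compound (0.0316 nM–10.0 μM, duplicate, 1% DMSO final) in insulin/transferrin-supplemented medium. Luminescence after lysis; EC50 relative to compound's own maximum, efficacy as percent of recombinant human FSH maximum.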
row,EC50 [nM],Structure (SMILES)
1,10.7,"CCS(=O)(=O)c1cc2c(cc1OC)CCn1c3c(c(-c4cncs4)c1-2)CCCCN(C(C)(C)C)C3=O [Compound 23g, 9-tert-butyl-14-(thiazol-5-yl)-2-ethylsulfonyl-3-methoxy-5,6,10,11,12,13-hexahydroazocino[4′,3′:4,5]pyrrolo[2,1-a]isoquinolin-8(9H)-one]"
2,1.26,"COc1cc2c(cc1NC(=O)CN1CC(O)C1)-c1c(-c3cccs3)c3c(n1CC2)C(=O)N(C(C)(C)C)CCCC3 [Compound 22c, 2-(3-hydroxyazetidin-1-yl)-N-(9-tert-butyl-14-(thien-2-yl)-3-methoxy-5,6,10,11,12,13-hexahydroazocino[4′,3′:4,5]pyrrolo[2,1-a]isoquinolin-8(9H)-on-2-yl)acetamide]"
3,4.17,"COc1cc2c(cc1-c1cccnc1)-c1c(-c3cccs3)c3c(n1CC2)C(=O)N(C(C)(C)C)CCC3 [Compound 4g, 9-tert-butyl-2-(pyridin-3-yl)-3-methoxy-13-(2-thienyl)-5,6,9,10,11,12-hexahydro-8H-azepino[4′,3′:4,5]pyrrolo[2,1-a]isoquinolin-8-one]"
4,1260,"COc1cc2c(cc1-c1ncco1)-c1c(-c3cccs3)c3c(n1CC2)C(=O)N(C(C)C)CCN(C(=O)C(C)C)C3 [Compound 10x, 9-isopropyl-3-methoxy-12-isobutyryl-14-(2-thienyl)-2-oxazol-2-yl-5,6,10,11,12,13-hexahydro[1,4]diazocino[6′,7′:4,5]pyrrolo[2,1-a]isoquinolin-8(9H)-one]"
5,759,"COc1cc2c(cc1-c1cccnc1)-c1c(-c3cccs3)c3c(n1CC2)C(=O)N(C(C)C)CCN(C(=O)C(C)C)C3 [Compound 10w, 9-isopropyl-3-methoxy-12-isobutyryl-14-(2-thienyl)-2-pyridin-3-yl-5,6,10,11,12,13-hexahydro[1,4]diazocino[6′,7′:4,5]pyrrolo[2,1-a]isoquinolin-8(9H)-one]"
6,4.68,"COc1cc2c(cc1NC(=O)CN(C)C)-c1c(-c3cccs3)c3c(n1CC2)C(=O)N(C(C)(C)C)CCCC3 [Compound 22b, 2-dimethylamino-N-(9-tert-butyl-14-(thien-2-yl)-3-methoxy-5,6,10,11,12,13-hexahydroazocino[4′,3′:4,5]pyrrolo[2,1-a]isoquinolin-8(9H)-on-2-yl)acetamide]"
7,257,"COc1cc2c(cc1-c1c(C)nn(C)c1C)-c1c(-c3cccs3)c3c(n1CC2)C(=O)N(C(C)C)CCNC3 [Compound 10q, 9-isopropyl-3-methoxy-2-(1,3,5-trimethyl-1H-pyrazol-4-yl)-14-(2-thienyl)-5,6,10,11,12,13-hexahydro[1,4]diazocino[6′,7′:4,5]pyrrolo[2,1-a]isoquinolin-8(9H)-one]"
8,1,"COC(=O)c1cc2c(cc1OC)CCn1c3c(c(-c4cccs4)c1-2)CCCCN(C(C)(C)C)C3=O [Compound 26a, methyl 9-tert-butyl-3-methoxy-14-(thiophen-2-yl)-5,6,10,11,12,13-hexahydroazocino[4′,3′:4,5]pyrrolo[2,1-a]isoquinolin-8(9H)-one-2-carboxylate]"
9,29.5,"COc1cc2c(cc1-c1cccnc1)-c1c(-c3cscn3)c3c(n1CC2)C(=O)N(C(C)(C)C)CCCCC3 [Compound 16t, 2-pyridin-3-yl-9-tert-butyl-3-methoxy-15-(1,3-thiazol-4-yl)-5,6,9,10,11,12,13,14-octahydro-8H-azonino[4′,3′:4,5]pyrrolo[2,1-a]isoquinolin-8-one]"
10,35.5,"COc1cc2c(cc1OC(C)C)-c1c(-c3cccs3)c3c(n1CC2)C(=O)N(C(C)C)CCN(C(C)=O)C3 [Compound 14f, 12-acetyl-9-isopropyl-3-methoxy-2-isopropoxy-14-(2-thienyl)-5,6,10,11,12,13-hexahydro[1,4]diazocino[6′,7′:4,5]pyrrolo[2,1-a]isoquinolin-8(9H)-one]"
11,5010,"COc1cc2c(cc1-c1c(C)nn(C)c1C)-c1c(-c3cccs3)c3c(n1CC2)C(=O)N(C(C)C)CCN(C(=O)C(C)C)C3 [Compound 10s, 12-isobutyryl-9-isopropyl-3-methoxy-14-(2-thienyl)-2-(1,3,5-trimethyl-1H-pyrazol-4-yl)-5,6,10,11,12,13-hexahydro[1,4]diazocino[6′,7′:4,5]pyrrolo[2,1-a]isoquinolin-8(9H)-one]"
12,11.5,"COc1cc2c(cc1-c1ncco1)-c1c(-c3cccs3)c3c(n1CC2)C(=O)N(C(C)(C)C)CCC3 [Compound 4f, 9-tert-butyl-2-(oxazol-2-yl)-3-methoxy-13-(2-thienyl)-5,6,9,10,11,12-hexahydro-8H-azepino[4′,3′:4,5]pyrrolo[2,1-a]isoquinolin-8-one]"
13,389,"COc1cc2c(cc1-c1cccnc1)-c1c(-c3cccs3)c3c(n1CC2)C(=O)N(C(C)(C)C)CCC(C)(C)C3 [Compound 24k, 9-tert-butyl-12,12-dimethyl-3-methoxy-2-pyridin-3-yl-14-(2-thienyl)-5,6,10,11,12,13-hexahydroazocino[4′,3′:4,5]pyrrolo[2,1-a]isoquinolin-8(9H)-one]"
14,120,"COc1cc2c(cc1-c1cnccn1)-c1c(-c3cncs3)c3c(n1CC2)C(=O)N(C(C)(C)C)CCCOC3 [Compound 8g, 9-tert-butyl-3-methoxy-2-pyrazin-2-yl-15-(1,3-thiazol-5-yl)-5,6,9,10,11,12-hexahydro[1,5]oxazonino[8′,7′:4,5]pyrrolo[2,1-a]isoquinolin-8(14H)-one]"
15,219,"CCC(=O)N1CCN(C(C)C)C(=O)c2c(c(-c3cccs3)c3n2CCc2cc(OC)c(OC(C)C)cc2-3)C1 [Compound 14g, 12-propanoyl-9-isopropyl-3-methoxy-2-isopropoxy-14-(2-thienyl)-5,6,10,11,12,13-hexahydro[1,4]diazocino[6′,7′:4,5]pyrrolo[2,1-a]isoquinolin-8(9H)-one]"
16,6.31,"COc1cc2c(cc1-c1cccnc1)-c1c(C3=CCOCC3)c3c(n1CC2)C(=O)N(C(C)(C)C)CCCC3 [Compound 25c, 9-tert-butyl-2-(3-pyridyl)-14-(3,6-dihydro-2H-pyran-4-yl)-3-methoxy-5,6,10,11,12,13-hexahydroazocino[4′,3′:4,5]pyrrolo[2,1-a]isoquinolin-8(9H)-one]"
17,36.3,"CCn1nnc(-c2cc3c(cc2OC)CCn2c4c(c(-c5cccs5)c2-3)CCCN(C(C)(C)C)C4=O)n1 [Compound 3e, 9-tert-butyl-2-(2-ethyl-2H-tetrazol-5-yl)-3-methoxy-13-(2-thienyl)-5,6,9,10,11,12-hexahydro-8H-azepino[4′,3′:4,5]pyrrolo[2,1-a]isoquinolin-8-one]"
18,2.82,"COc1cc2c(cc1-c1cccnc1)-c1c(-c3cccs3)c3c(n1CC2)C(=O)N(C(C)(C)C)CCCOC3 [Compound 7l, 9-tert-butyl-3-methoxy-2-pyridin-3-yl-15-(2-thienyl)-5,6,9,10,11,12-hexahydro[1,5]oxazonino[8′,7′:4,5]pyrrolo[2,1-a]isoquinolin-8(14H)-one]"
19,4.68,"COc1cc2c(cc1Br)-c1c(-c3cncs3)c3c(n1CC2)C(=O)N(C(C)(C)C)CCCC3 [Compound 17i, 9-tert-butyl-3-methoxy-2-bromo-14-(1,3-thiazol-5-yl)-5,6,10,11,12,13-hexahydroazocino[4′,3′:4,5]pyrrolo[2,1-a]isoquinolin-8(9H)-one]"
20,126,"COc1cc2c(cc1NC(=O)C(C)C)-c1c(-c3cccs3)c3c(n1CC2)C(=O)N(C(C)(C)C)CCC3 [Compound 3f, 9-tert-butyl-2-isobutyramido-3-methoxy-13-(2-thienyl)-5,6,9,10,11,12-hexahydro-8H-azepino[4′,3′:4,5]pyrrolo[2,1-a]isoquinolin-8-one]"
